Species: Rattus norvegicus
Experiment: DrugMatrix - Regimen: Daily Repeat
Assay type: toxicity, organism-based, Sprague-Dawley
Parameters: regimen Daily Repeat, gender Male, age 6-8 weeks
Settings: in vivo, iv, 0 mg/kg, dose level Control, vehicle 100 % SALINE
[1] = 72 h, tissue Plasma, time 3 day
[2] = 120 h, tissue Blood, time 5 day
[3] = 120 h, tissue Plasma, time 5 day

Sequence: LIPOPOLYSACCHARIDE E. COLI O55:B5
- ABSOLUTE BASOPHIL (72 h, tissue Blood, time 3 day): 0 CELLS/uL
- ABSOLUTE EOSINOPHIL (72 h, tissue Blood, time 3 day): 33.67 CELLS/uL
- ABSOLUTE LYMPHOCYTE (72 h, tissue Blood, time 3 day): 12123.5 CELLS/uL
- ABSOLUTE MONOCYTE (72 h, tissue Blood, time 3 day): 243.5 CELLS/uL
- ABSOLUTE SEGMENTED NEUTROPHIL (72 h, tissue Blood, time 3 day): 1282.67 CELLS/uL
- BASOPHIL (72 h, tissue Blood, time 3 day): 0%
- EOSINOPHIL (72 h, tissue Blood, time 3 day): 0.33%
- ERYTHROCYTE COUNT (72 h, tissue Blood, time 3 day): 5.18 x10E6/uL
- HEMATOCRIT (72 h, tissue Blood, time 3 day): 32.63%
- LEUKOCYTE COUNT (72 h, tissue Blood, time 3 day): 13.68 x10E3/uL
- LYMPHOCYTE (72 h, tissue Blood, time 3 day): 88.67%
- MEAN CORPUSCULAR HEMOGLOBIN (72 h, tissue Blood, time 3 day): 24.98 pg
- NEUTROPHIL (72 h, tissue Blood, time 3 day): 9.17%
- NUCLEATED RED BLOOD CELLS (72 h, tissue Blood, time 3 day): 0.17 /100WBC
- PLATELET COUNT (72 h, tissue Blood, time 3 day): 1114.5 x10E3/uL
- ALANINE AMINOTRANSFERASE [1]: 46.17 u/L
- ALKALINE PHOSPHATASE [1]: 374.67 u/L
- ASPARTATE AMINOTRANSFERASE [1]: 89.33 u/L
- BLOOD UREA NITROGEN [1]: 14.83 mg/dL
- CARBON DIOXIDE [1]: 25.67 mmol/L
- CHOLESTEROL [1]: 63.5 mg/dL
- CREATINE PHOSPHOKINASE [1]: 494.67 u/L
- CREATININE [1]: 0.17 mg/dL
- LACTATE DEHYDROGENASE [1]: 269.33 u/L
- PHOSPHORUS [1]: 11.27 mg/dL
- POTASSIUM [1]: 5.85 MEQ/L
- TOTAL BILIRUBIN [1]: 0.18 mg/dL
- TOTAL PROTEIN [1]: 5.87 G/DL
- URIC ACID [1]: 1.28 mg/dL
- ABSOLUTE BASOPHIL [2]: 0 CELLS/uL
- ABSOLUTE EOSINOPHIL [2]: 24.67 CELLS/uL
- ABSOLUTE LYMPHOCYTE [2]: 11832.83 CELLS/uL
- ABSOLUTE MONOCYTE [2]: 279.67 CELLS/uL
- ABSOLUTE SEGMENTED NEUTROPHIL [2]: 1446.17 CELLS/uL
- BASOPHIL [2]: 0%
- EOSINOPHIL [2]: 0.17%
- ERYTHROCYTE COUNT [2]: 5.61 x10E6/uL
- HEMATOCRIT [2]: 35.02%
- HEMOGLOBIN [2]: 13.82 G/DL
- LEUKOCYTE COUNT [2]: 13.58 x10E3/uL
- LYMPHOCYTE [2]: 87.67%
- MEAN CORPUSCULAR HEMOGLOBIN [2]: 24.68 pg
- MONOCYTE [2]: 2%
- NEUTROPHIL [2]: 10.17%
- NUCLEATED RED BLOOD CELLS [2]: 0 /100WBC
- PLATELET COUNT [2]: 1178.17 x10E3/uL
- ALANINE AMINOTRANSFERASE [3]: 52.83 u/L
- ALKALINE PHOSPHATASE [3]: 370 u/L
- ASPARTATE AMINOTRANSFERASE [3]: 100.5 u/L
- BLOOD UREA NITROGEN [3]: 15.17 mg/dL
- CARBON DIOXIDE [3]: 28.83 mmol/L
- CHOLESTEROL [3]: 69.5 mg/dL
- CREATINE PHOSPHOKINASE [3]: 488.67 u/L
- CREATININE [3]: 0.23 mg/dL
- GLUCOSE [3]: 165 mg/dL
- LACTATE DEHYDROGENASE [3]: 502.17 u/L
- LIPASE [3]: 11 u/L
- PHOSPHORUS [3]: 11.7 mg/dL
- POTASSIUM [3]: 5.85 MEQ/L
- TOTAL BILIRUBIN [3]: 0.18 mg/dL
